Laboratory results published in publication PMC3154276, “The Effect of the Potential PhoQ Histidine Kinase Inhibitors on Shigella flexneri Virulence” (PLoS ONE, 2011).

Assays:
SF-PhoQc = target: T1, SF-PhoQc (Shigella flexneri, UniProt Q83RR1); test: Luminescent Kinase Assay of SF-PhoQc; assay type: biochemical, S. flexneri 2a 301
T1 construct: The amplified DNA segment encodes PhoQ HK amino acids 251–486; made in house; host or cells: E. coli JM109
Description: Luminescent Kinase Assay was used to confirm the effects of compounds 1, 2, 3 and 4 on the enzymatic activity of SF-PhoQc. In the Luminescent Kinase Assay, the putative kinase activity of SF-PhoQc protein was measured by quantifying the amount of ATP that remained in solution after the reaction. […] Next, the effect of each compound on the enzymatic activity of SF-PhoQc was measured.
In the Luminescent Kinase assay, reactions were performed in solid black, flat-bottomed 96-well plates. To determine the IC50 of potential PhoQ HK inhibitors, each compound underwent 2-fold serial dilutions with DMSO (0.1%) and was added into the reaction mixture. The final reaction mixture contained 4 µg of purified SF-PhoQc, 40 mmol/L Tris-Cl (pH 7.5), 16 mmol/L MgCl2, 0.8 mmol/L DTT and different concentration of 100, 50, 25, 12.5, 6.25 or 3.125 µmol/L compound, respectively. After incubation at 30°C for 25 minutes, 3 µmol/L ATP was added, and the reaction was incubated at 30°C for another 25 minutes. Next, an equal volume of Luminescent Kinase Reagent was added to each well, mixed and kept at room temperature for 10 minutes before recording the luminescence reading on a Fluoroskan Ascent FL machine (Thermo Scientific, USA). The rate of phosphorylation inhibition by a compound was calculated with the following formula: [drawing 2]
The IC50 value of each compound was determined using the Origin 7.0 software (OriginLab, Northampton, USA).

S. flexneri 2a 301 = test: Gentamicin protection assay, HeLa cell invasion by Sf301; assay type: cell-based; details: bacteria treated 8 h, Figure S4
Description: Supplementary file pone.0023100.s004.tif: Figure S4 The effects of potential PhoQ inhibitors on cell invasion of Shigella Sf 301. […] The bacteria were treated with each of the four potential PhoQ inhibitors grown for 8 h. Then the bacteria were inoculated with HeLa cells for 60 minutes prior to the addition of gentamicin to kill extracellular bacteria. After the incubation, the HeLa cells in each well were lysed in 1 ml of PBS containing 0.1% Triton X-100. The lysates were diluted and plated onto LB agar plates in triplicate. Colonies grown on LB plates were counted. The results of the assays were expressed as the number of bacteria recovered from gentamicin-treated cells divided by the number of inoculated bacteria added to the cell. Values are means ± standard deviations from 6 independent wells. *p<0.01 vs. Sf301. […] (TIF) Click here for additional data file.

S. flexneri Sf9380 = test: Mouse Sereny test (keratoconjunctivitis); as to degree of keratoconjunctival inflammation: key: −: no disease; ±: little keratoconjunctivitis; +: mild keratoconjunctivitis; ++: keratoconjunctivitis with some purulence; +++: fully developed keratoconjunctivitis with great purulence; assay type: in vivo, BALB/c mice; details: for degree of keratoconjunctival inflammation: Sf9380 pre-treated at the concentration (I 1 12.5, I 2 25, I 3 and I 4 100 µmol/L); for eye finding at 24 hours post-infection / time by which keratoconjunctivitis was resolved: Sf9380 pre-treated with 100 µmol/L, 1×10^8 CFUs per eye; for keratoconjunctival inflammation (words, abstract): mice inoculated with pre-treated S. flexneri 9380
Excerpt: A Mouse Sereny test was used to investigate the inhibitory effect of the four potential PhoQ inhibitors on the virulence of S. flexneri Sf9380. The mice were infected with 1×10^8 CFUs per eye.
A Mouse Sereny test was used to evaluate the virulence of S. flexneri Sf9380 [48]. A single red colony of Sf9380 on Congo Red agar (Tryptic soy broth provided by Oxfoid Co. with 1.5% agar and 0.01% Congo red), was inoculated into LB and grown with or without potential PhoQ inhibitors (final concentration 100,50,25,12.5 or 6.25 µmol/L) at 37°C for 8 hours with constant shaking. The female BALB/c mice (about 18 g) were infected with 1×10^8 CFUs per eye. The eye of the mouse was inoculated with the bacterium with or without potential PhoQ inhibitor treatment (n = 6 mice in each group). […] In the experiment, mouse eyes inoculated with untreated Sf9380 (treated without DMSO) served as the positive control for keratoconjunctivitis, and mouse eyes inoculated with E. coli ATCC 25922 (treated without DMSO) served as the negative control. Because DMSO is the solvent of the potential PhoQ inhibitor, Sf9380 was treated with the same amount of DMSO (0.1%) as the other groups. The invasiveness of the bacteria was scored: no disease or mild irritation as “−”, + as mild conjunctivitis or late development and/or rapid clearing of symptoms, ++ as keratoconjunctivitis without purulence, and +++ as fully developed keratoconjunctivitis with purulence.

[1] = Cytotoxicity MTT assay on Vero cells; assay type: cell-based; details: African green monkey, highest concentration tested 200 µmol/L, read-out: CC50 on Vero cell
Description: The cytotoxicity of each potential PhoQ inhibitor towards a Vero cell line was analyzed by the traditional MTT assay. The CC50 values of all four compounds were higher than 200 µmol/L, the highest tested concentration of potential PhoQ inhibitors. As a control, an equal concentration of DMSO (0.1%) was added to a well of Vero cells, and no obvious cytotoxicity was observed (Table 1).
Cytotoxicity of the potential PhoQ inhibitors on cultured Vero cells was measured by using the Cell Proliferation Kit I (MTT) (Roche, Indianapolis, USA). An equal concentration of DMSO (0.1%) in the medium was used as a negative control. The cytotoxicity assay was performed in triplicate for each potential PhoQ inhibitor, and the assay for each potential PhoQ inhibitor was repeated twice. The results were converted to percentage of the control (cells only containing 0.1% DMSO) and CC50 (concentrations that produce a 50% cytotoxicity effect on Vero cell) of each potential PhoQ inhibitors was calculated using the Origin v7.0 software (OriginLab, Northampton, USA).

T1 sequence (Q83RR1 251-486): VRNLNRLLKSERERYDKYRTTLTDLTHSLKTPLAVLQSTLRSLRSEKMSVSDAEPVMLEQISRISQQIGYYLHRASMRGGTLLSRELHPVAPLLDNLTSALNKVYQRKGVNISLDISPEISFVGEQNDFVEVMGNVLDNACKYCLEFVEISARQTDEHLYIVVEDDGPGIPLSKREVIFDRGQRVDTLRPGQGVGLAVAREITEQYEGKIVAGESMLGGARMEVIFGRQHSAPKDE

Structure (SMILES) | IC50 (SF-PhoQc) | effect on HeLa cell invasion ability of Sf301 (S. flexneri 2a 301) | degree of keratoconjunctival inflammation (S. flexneri Sf9380; 24 h, mouse 1) | degree of keratoconjunctival inflammation (S. flexneri Sf9380; 24 h, mouse 2) | degree of keratoconjunctival inflammation (S. flexneri Sf9380; 24 h, mouse 3) | degree of keratoconjunctival inflammation (S. flexneri Sf9380; 24 h, mouse 4) | degree of keratoconjunctival inflammation (S. flexneri Sf9380; 24 h, mouse 5) | degree of keratoconjunctival inflammation (S. flexneri Sf9380; 24 h, mouse 6) | degree of keratoconjunctival inflammation (S. flexneri Sf9380; 48 h, mouse 1) | degree of keratoconjunctival inflammation (S. flexneri Sf9380; 48 h, mouse 2) | degree of keratoconjunctival inflammation (S. flexneri Sf9380; 48 h, mouse 3) | degree of keratoconjunctival inflammation (S. flexneri Sf9380; 48 h, mouse 4) | degree of keratoconjunctival inflammation (S. flexneri Sf9380; 48 h, mouse 5) | degree of keratoconjunctival inflammation (S. flexneri Sf9380; 48 h, mouse 6) | degree of keratoconjunctival inflammation (S. flexneri Sf9380; 72 h, mouse 1) | degree of keratoconjunctival inflammation (S. flexneri Sf9380; 72 h, mouse 2) | degree of keratoconjunctival inflammation (S. flexneri Sf9380; 72 h, mouse 3) | degree of keratoconjunctival inflammation (S. flexneri Sf9380; 72 h, mouse 4) | degree of keratoconjunctival inflammation (S. flexneri Sf9380; 72 h, mouse 5) | degree of keratoconjunctival inflammation (S. flexneri Sf9380; 72 h, mouse 6) | also measured
O=C(O)c1ccc(Cl)c(-c2ccc(/C=N/NC(=O)c3ccc(Br)cc3)o2)c1 [Compound 3] | 7.99 ± 5.61 µM | can inhibit | + | + | + | + | + | + | + | − | − | − | + | − | − | + | − | − | − | − | degree of keratoconjunctival inflammation (S. flexneri Sf9380; 96 h, mouse 1): −; degree of keratoconjunctival inflammation (S. flexneri Sf9380; 96 h, mouse 2): −; degree of keratoconjunctival inflammation (S. flexneri Sf9380; 96 h, mouse 3): −; degree of keratoconjunctival inflammation (S. flexneri Sf9380; 96 h, mouse 4): −; degree of keratoconjunctival inflammation (S. flexneri Sf9380; 96 h, mouse 5): −; degree of keratoconjunctival inflammation (S. flexneri Sf9380; 96 h, mouse 6): −; eye finding at 24 hours post-infection (S. flexneri Sf9380): slight conjunctival inflammation; time by which keratoconjunctivitis was resolved (S. flexneri Sf9380): ≤ 72 h; keratoconjunctival inflammation (words, abstract) (S. flexneri Sf9380): no inflammation; CC50 [1]: > 200 µM
O=C(O)c1cc(-c2ccc(-c3ccccc3Cl)o2)nc2ccc3ccccc3c12 [Compound 4] | 27.2 ± 15.4 µM | no effect | + | + | + | + | + | − | + | − | − | − | + | − | + | − | − | − | − | − | degree of keratoconjunctival inflammation (S. flexneri Sf9380; 96 h, mouse 1): −; degree of keratoconjunctival inflammation (S. flexneri Sf9380; 96 h, mouse 2): −; degree of keratoconjunctival inflammation (S. flexneri Sf9380; 96 h, mouse 3): −; degree of keratoconjunctival inflammation (S. flexneri Sf9380; 96 h, mouse 4): −; degree of keratoconjunctival inflammation (S. flexneri Sf9380; 96 h, mouse 5): −; degree of keratoconjunctival inflammation (S. flexneri Sf9380; 96 h, mouse 6): −; eye finding at 24 hours post-infection (S. flexneri Sf9380): slight conjunctival inflammation; time by which keratoconjunctivitis was resolved (S. flexneri Sf9380): ≤ 72 h; keratoconjunctival inflammation (words, abstract) (S. flexneri Sf9380): no inflammation; CC50 [1]: > 200 µM
